Where two headings read alike, the source gives them in different places.
Assays:
Experiment in all cases: selectivity profiling in a panel of 340 wild-type kinases (Reaction Biology Europe)
Assay type in all cases: binding
340 wild-type kinases [1] = molecular target: T1, 340 wild-type kinases (Homo sapiens, UniProt O43781)
T1 construct: purchased Reaction Biology Europe
T1 sequence (O43781 1-588): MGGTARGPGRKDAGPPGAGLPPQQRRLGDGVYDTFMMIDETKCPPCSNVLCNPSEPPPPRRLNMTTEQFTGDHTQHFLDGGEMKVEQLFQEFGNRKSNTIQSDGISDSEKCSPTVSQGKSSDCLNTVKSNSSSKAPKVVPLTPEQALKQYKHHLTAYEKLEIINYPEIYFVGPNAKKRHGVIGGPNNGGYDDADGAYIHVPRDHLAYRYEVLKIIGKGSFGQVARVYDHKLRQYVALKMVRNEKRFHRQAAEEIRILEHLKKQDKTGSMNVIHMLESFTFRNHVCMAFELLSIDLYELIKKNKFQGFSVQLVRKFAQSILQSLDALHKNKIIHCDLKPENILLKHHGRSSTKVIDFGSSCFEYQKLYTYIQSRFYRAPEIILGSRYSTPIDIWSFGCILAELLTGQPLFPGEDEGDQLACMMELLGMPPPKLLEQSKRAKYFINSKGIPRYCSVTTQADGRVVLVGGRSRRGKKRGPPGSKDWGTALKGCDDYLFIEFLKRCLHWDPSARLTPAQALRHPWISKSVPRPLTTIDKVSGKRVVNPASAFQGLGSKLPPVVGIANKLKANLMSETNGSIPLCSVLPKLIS

340 wild-type kinases [2] = molecular target: T2, 340 wild-type kinases (Homo sapiens, UniProt O43293)
T2 construct: purchased Reaction Biology Europe
T2 sequence (O43293 whole entry): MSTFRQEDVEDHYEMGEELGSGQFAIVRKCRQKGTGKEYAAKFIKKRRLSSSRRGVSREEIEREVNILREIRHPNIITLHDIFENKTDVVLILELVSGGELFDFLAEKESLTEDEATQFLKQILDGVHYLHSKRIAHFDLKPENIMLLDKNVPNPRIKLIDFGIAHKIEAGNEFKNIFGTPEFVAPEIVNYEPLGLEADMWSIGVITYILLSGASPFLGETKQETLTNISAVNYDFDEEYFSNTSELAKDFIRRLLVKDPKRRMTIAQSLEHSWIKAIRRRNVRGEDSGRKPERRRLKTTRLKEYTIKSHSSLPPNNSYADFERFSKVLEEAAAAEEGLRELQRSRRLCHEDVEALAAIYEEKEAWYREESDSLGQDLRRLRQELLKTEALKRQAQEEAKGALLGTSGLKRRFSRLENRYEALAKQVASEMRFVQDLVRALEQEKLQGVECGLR

340 wild-type kinases [3] = molecular target: T3, 340 wild-type kinases (Homo sapiens, UniProt Q8NG66)
T3 construct: purchased Reaction Biology Europe
T3 sequence (Q8NG66 1-645): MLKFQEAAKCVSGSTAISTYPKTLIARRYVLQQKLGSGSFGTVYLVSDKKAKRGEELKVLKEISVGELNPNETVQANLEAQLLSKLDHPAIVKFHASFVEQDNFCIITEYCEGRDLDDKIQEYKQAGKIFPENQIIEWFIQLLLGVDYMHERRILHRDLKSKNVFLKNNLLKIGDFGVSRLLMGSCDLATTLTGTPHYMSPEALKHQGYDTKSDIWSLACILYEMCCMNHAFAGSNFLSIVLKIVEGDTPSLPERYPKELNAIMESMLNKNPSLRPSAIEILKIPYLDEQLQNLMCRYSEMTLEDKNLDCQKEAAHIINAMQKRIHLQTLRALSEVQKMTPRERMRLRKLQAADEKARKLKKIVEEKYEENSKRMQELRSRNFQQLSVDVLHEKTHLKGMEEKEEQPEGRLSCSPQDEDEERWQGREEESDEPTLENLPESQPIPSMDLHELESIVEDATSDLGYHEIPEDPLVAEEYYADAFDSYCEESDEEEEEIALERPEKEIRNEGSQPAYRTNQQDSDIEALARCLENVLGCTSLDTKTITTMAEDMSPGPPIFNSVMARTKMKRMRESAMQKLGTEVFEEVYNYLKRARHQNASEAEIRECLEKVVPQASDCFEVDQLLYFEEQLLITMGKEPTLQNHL

340 wild-type kinases [4] = molecular target: T4, 340 wild-type kinases (Homo sapiens, UniProt Q9NWZ3)
T4 construct: purchased Reaction Biology Europe
T4 sequence (Q9NWZ3 1-460): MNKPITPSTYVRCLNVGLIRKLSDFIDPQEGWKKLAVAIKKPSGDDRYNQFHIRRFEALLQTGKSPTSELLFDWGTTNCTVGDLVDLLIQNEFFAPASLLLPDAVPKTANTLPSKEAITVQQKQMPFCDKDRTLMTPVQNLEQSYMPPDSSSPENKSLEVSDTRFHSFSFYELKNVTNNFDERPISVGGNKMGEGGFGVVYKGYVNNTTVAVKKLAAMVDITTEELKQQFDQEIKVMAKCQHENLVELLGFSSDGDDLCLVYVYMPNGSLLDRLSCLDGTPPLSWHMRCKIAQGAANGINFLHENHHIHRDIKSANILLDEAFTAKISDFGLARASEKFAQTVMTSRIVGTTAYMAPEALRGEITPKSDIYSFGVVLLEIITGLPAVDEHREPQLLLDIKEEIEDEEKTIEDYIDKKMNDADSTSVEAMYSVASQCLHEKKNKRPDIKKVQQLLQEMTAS

340 wild-type kinases [5] = molecular target: T5, 340 wild-type kinases (Homo sapiens, UniProt Q99986)
T5 construct: purchased Reaction Biology Europe
T5 sequence (Q99986 1-396): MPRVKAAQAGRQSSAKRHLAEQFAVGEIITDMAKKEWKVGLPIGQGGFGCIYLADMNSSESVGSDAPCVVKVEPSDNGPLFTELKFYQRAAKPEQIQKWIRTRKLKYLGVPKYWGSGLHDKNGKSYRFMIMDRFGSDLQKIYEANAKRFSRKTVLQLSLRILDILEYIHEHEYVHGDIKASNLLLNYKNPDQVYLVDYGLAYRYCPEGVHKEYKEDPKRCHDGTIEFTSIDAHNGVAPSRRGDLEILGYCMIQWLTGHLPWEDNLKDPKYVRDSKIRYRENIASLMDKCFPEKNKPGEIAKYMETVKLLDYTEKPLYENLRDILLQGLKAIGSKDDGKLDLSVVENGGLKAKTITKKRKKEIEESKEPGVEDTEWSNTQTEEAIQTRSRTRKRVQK

340 wild-type kinases [6] = molecular target: T6, 340 wild-type kinases (Homo sapiens, UniProt O00238)
T6 construct: purchased Reaction Biology Europe
T6 sequence (O00238 14-502): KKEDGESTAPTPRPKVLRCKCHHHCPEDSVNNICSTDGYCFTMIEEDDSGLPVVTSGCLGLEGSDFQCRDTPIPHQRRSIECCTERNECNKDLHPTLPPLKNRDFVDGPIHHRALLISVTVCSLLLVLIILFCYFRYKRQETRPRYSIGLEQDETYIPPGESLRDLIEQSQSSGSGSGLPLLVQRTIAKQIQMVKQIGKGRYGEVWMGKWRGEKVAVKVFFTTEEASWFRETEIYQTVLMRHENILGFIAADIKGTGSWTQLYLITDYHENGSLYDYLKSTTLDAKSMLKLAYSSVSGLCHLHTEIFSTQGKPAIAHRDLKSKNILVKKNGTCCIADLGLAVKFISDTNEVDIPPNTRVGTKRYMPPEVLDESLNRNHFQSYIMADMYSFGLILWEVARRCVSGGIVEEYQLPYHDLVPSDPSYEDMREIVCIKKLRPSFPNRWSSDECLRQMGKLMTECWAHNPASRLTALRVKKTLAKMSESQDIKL

340 wild-type kinases [7] = molecular target: T7, 340 wild-type kinases (Homo sapiens, UniProt P17252)
T7 construct: purchased Reaction Biology Europe

340 wild-type kinases [8] = molecular target: T8, 340 wild-type kinases (Homo sapiens, UniProt Q9BQI3)
T8 construct: purchased Reaction Biology Europe
T8 sequence (Q9BQI3 whole entry): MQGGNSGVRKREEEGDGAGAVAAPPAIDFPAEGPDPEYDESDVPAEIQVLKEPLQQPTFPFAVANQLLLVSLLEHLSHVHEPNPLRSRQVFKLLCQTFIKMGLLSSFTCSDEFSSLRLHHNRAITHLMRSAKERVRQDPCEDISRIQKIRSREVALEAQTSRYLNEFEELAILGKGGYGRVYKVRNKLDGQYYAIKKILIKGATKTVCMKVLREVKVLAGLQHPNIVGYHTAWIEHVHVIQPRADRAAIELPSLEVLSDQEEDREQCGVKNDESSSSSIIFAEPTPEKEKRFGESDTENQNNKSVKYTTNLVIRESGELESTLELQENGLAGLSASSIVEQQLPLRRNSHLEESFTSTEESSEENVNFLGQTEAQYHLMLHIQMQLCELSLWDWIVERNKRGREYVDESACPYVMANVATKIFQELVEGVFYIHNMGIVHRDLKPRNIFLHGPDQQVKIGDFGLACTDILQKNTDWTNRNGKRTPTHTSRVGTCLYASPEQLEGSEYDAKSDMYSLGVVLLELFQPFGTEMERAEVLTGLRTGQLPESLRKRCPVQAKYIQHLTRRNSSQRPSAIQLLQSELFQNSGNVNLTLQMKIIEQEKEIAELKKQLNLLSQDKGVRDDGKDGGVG

In the case of CNC(=O)c1ccc2c(c1)C(=O)c1ccc(Nc3ccc(F)c(NC(=O)C4CC4)c3)cc1CC2 [Compound 2015], the remaining activity at 0.2 µM (340 wild-type kinases [1]; 0.2 µM 2015, read-out: DYRK3 residual activity) is reported as 104%, the remaining activity at 1 µM (340 wild-type kinases [1]; 1 µM 2015, read-out: DYRK3 residual activity) is reported as 107% and the remaining activity at 0.2 µM (340 wild-type kinases [1]; DYRK3, 0.2 µM, read-out: residual activity) is reported as 104%. The remaining activity at 1 µM (340 wild-type kinases [1]; DYRK3, 1 µM, read-out: residual activity) was 107%, the remaining activity at 0.2 µM (340 wild-type kinases [2]; 0.2 µM 2015, read-out: DAPK3 residual activity) was 110% and the remaining activity at 1 µM (340 wild-type kinases [2]; 1 µM 2015, read-out: DAPK3 residual activity) was 115%. The remaining activity at 0.2 µM (340 wild-type kinases [2]; DAPK3, 0.2 µM, read-out: residual activity) was 110%, the remaining activity at 1 µM (340 wild-type kinases [2]; DAPK3, 1 µM, read-out: residual activity) was 115% and the remaining activity at 1 µM (340 wild-type kinases [3]; 1 µM 2015, read-out: NEK11 residual activity) was 95.8%. For the same compound, the remaining activity at 0.2 µM (340 wild-type kinases [3]; NEK11, 0.2 µM, read-out: residual activity) was 91.3%, the remaining activity at 1 µM (340 wild-type kinases [3]; NEK11, 1 µM, read-out: residual activity) was 95.8% and the remaining activity at 0.2 µM (340 wild-type kinases [4]; 0.2 µM 2015, read-out: IRAK4 residual activity) was 96.5%. The remaining activity at 1 µM (340 wild-type kinases [4]; 1 µM 2015, read-out: IRAK4 residual activity) was 93.5%, the remaining activity at 0.2 µM (340 wild-type kinases [4]; IRAK4, 0.2 µM, read-out: residual activity) was 96.5% and the remaining activity at 1 µM (340 wild-type kinases [4]; IRAK4, 1 µM, read-out: residual activity) was 93.5%. It also gave a remaining activity at 0.2 µM (340 wild-type kinases [5]; 0.2 µM 2015, read-out: VRK1 residual activity) of 96.8%, a remaining activity at 1 µM (340 wild-type kinases [5]; 1 µM 2015, read-out: VRK1 residual activity) of 87.2% and a remaining activity at 0.2 µM (340 wild-type kinases [5]; VRK1, 0.2 µM, read-out: residual activity) of 96.8%. It also gave a remaining activity at 1 µM (340 wild-type kinases [5]; VRK1, 1 µM, read-out: residual activity) of 87.2%, a remaining activity at 0.2 µM (340 wild-type kinases [6]; 0.2 µM 2015, read-out: BMPR1B residual activity) of 105% and a remaining activity at 1 µM (340 wild-type kinases [6]; 1 µM 2015, read-out: BMPR1B residual activity) of 103%. It also gave a remaining activity at 0.2 µM (340 wild-type kinases [6]; BMPR1B, 0.2 µM, read-out: residual activity) of 105%, a remaining activity at 1 µM (340 wild-type kinases [6]; BMPR1B, 1 µM, read-out: residual activity) of 103% and a remaining activity at 0.2 µM (340 wild-type kinases [7]; 0.2 µM 2015, read-out: PKCalpha residual activity) of 118%. For the same compound, the remaining activity at 1 µM (340 wild-type kinases [7]; 1 µM 2015, read-out: PKCalpha residual activity) was 98.8%, the remaining activity at 0.2 µM (340 wild-type kinases [7]; PKCalpha, 0.2 µM, read-out: residual activity) was 118% and the remaining activity at 1 µM (340 wild-type kinases [7]; PKCalpha, 1 µM, read-out: residual activity) was 98.8%. The remaining activity at 0.2 µM (340 wild-type kinases [8]; 0.2 µM 2015, read-out: HRI residual activity) was 75%, the remaining activity at 1 µM (340 wild-type kinases [8]; 1 µM 2015, read-out: HRI residual activity) was 93.7% and the remaining activity at 0.2 µM (340 wild-type kinases [8]; HRI, 0.2 µM, read-out: residual activity) was 75%. It also gave a remaining activity at 1 µM (340 wild-type kinases [8]; HRI, 1 µM, read-out: residual activity) of 93.7%.

From publication PMC11864979, “First-in-class ultralong-target-residence-time p38α inhibitors as a mitosis-targeted therapy for colorectal cancer” (Nature Cancer, 2025)
